# Source: patent publication US10568324B2, “Agricultural and horticultural material, and plant cultivation method which promote coloring in fruit” (AJINOMOTO CO., INC., priority 2015, dated 2020)
# Where two headings read alike, the source gives them in different places.
# Tests used:
# [1] = tested on: grape cultured cells (VR calluses); test: Anthocyanin content in grape calluses treated with various amino acids (Reference Example 1(1)); type: cell-based, Vitis vinifera L.; settings: 5 days
# Description: Cells derived from a European grape cell line (Vitis vinifera L.; RIKEN BioResource Center; VR, management number RPC00003) were subcultured on MS agar medium. The subcultured VR calluses (i.e. cell clusters) were each transferred to MS agar medium containing 5 mM of each amino acid solution, and cultured. As a positive control, 100 μM abscisic acid (ABA) was added, which is a known color-promotor. Five days after the transfer, each callus was freeze-dried and ground, and anthocyanin was extracted with a 1% HCl solution in MeOH.
# [2] = cited from earlier work
# [3] = tested on: Cabernet Sauvignon grape plants; test: Effect of isoleucine on coloring of grape berries, sprinkled on bunches in test farm (Reference Example 1(2)); type: in vivo; settings: 10 mM Ile + 0.1% Applauch BI sprinkled on bunches in veraison period; FIG. 1
# Description: Cabernet Sauvignon grape plants that had been cultivated in a test farm and had entered into the veraison period were chosen for this experiment. Eight bunches of grapes on each of two grape plants, 16 bunches of grapes in total, were selected for each test group. On each bunch of grapes, about 6.25 mL of 0.1% Applauch BI (Kao, control), 1 g/L of abscisic acid (ABA)+0.1% Applauch BI (positive control), or 10 mM isoleucine (Ile)+0.1% Applauch BI was sprinkled. As samples, 4 bunches for each test group were collected 4 times. Anthocyanin present in the pericarps was extracted with a mixed solution of water and acetone (1:2), and the anthocyanin content was measured in the same manner as described above.
Structure (SMILES),"Relative content of anthocyanin ([1]; 5 mM amino acid in MS agar medium, relative to positive control 100 μM ABA taken as 100%) [%]",solubility in water [2],anthocyanin content in pericarps [3],"anthocyanin content of callus (in words) ([1]; 5 mM amino acid, compared among the amino acids of Table 1)",solubility in water ([2]; 20° C.) [mg/mL],solubility in water ([2]; 50° C.) [mg/mL]
C[C@H](N)C(=O)O [Ala],7,–,–,–,–,–
"CC[C@H](C)[C@H](N)C(=O)O [Ile, isoleucine]",–,about 0.3 M,increased,highest anthocyanin content,–,–
"CC(C)C[C@H](N)C(=O)O [Leu, leucine]",–,about 0.2 M,–,–,24,29
"N[C@@H](Cc1ccccc1)C(=O)O [Phe, phenylalanine]",–,about 0.2 M,–,–,27,40
